Source: ChEMBL document CHEMBL4842321, “Novel benzenesulfonamides aryl and arylsulfone conjugates adopting tail/dual tail approaches: Synthesis, carbonic anhydrase inhibitory activity and molecular modeling studies” (Eur J Med Chem, 2021)

Experiments:
Carbonic anhydrase 4 = Carbonic anhydrase 4 (Homo sapiens, UniProt P22748); assay: Inhibition of recombinant human carbonic anhydrase 4 by stopped-flow CO2 hydration assay
Carbonic anhydrase 9 = Carbonic anhydrase 9 (Homo sapiens, UniProt Q16790); assay: Inhibition of recombinant human carbonic anhydrase 9 by stopped-flow CO2 hydration assay
Carbonic anhydrase 1 = Carbonic anhydrase 1 (Homo sapiens, UniProt P00915); assay: Inhibition of recombinant human carbonic anhydrase 1 by stopped-flow CO2 hydration assay
Chain of Carbonic anhydrase 1 (P00915 whole entry): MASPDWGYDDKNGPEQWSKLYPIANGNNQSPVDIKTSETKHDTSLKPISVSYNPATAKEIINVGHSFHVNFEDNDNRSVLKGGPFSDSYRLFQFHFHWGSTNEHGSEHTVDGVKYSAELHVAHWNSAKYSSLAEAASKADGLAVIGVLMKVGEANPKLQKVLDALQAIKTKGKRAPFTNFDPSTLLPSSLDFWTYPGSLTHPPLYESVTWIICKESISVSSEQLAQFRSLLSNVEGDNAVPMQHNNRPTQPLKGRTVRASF

MCF-10A = assay: cells; settings: Homo sapiens
Description: Antiproliferation activity against human MCF-10A cells assessed as reduction in cell viability under hypoxic conditions by MTT assay

MCF7 = assay: Antiproliferation activity against human MCF7 cells assessed as reduction in cell viability under hypoxic conditions by MTT assay
Carbonic anhydrase 2 = Carbonic anhydrase 2 (Homo sapiens, UniProt P00918); assay: Inhibition of recombinant human carbonic anhydrase 2 by stopped-flow CO2 hydration assay

Chain of Carbonic anhydrase 4 (P22748 whole entry): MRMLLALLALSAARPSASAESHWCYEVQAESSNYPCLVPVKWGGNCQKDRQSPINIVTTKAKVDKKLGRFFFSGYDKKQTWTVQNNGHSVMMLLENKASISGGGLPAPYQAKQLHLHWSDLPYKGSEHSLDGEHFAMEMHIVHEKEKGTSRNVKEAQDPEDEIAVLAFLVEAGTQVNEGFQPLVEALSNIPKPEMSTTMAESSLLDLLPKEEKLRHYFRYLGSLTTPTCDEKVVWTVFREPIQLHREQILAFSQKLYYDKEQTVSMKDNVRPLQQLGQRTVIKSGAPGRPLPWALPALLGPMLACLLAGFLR

Structure (SMILES) | Ki (Carbonic anhydrase 4) | Ki (Carbonic anhydrase 9) | Ki (Carbonic anhydrase 1) | IC50 (MCF-10A) | IC50 (MCF7) | Ki (Carbonic anhydrase 2)
O=C(O)c1ccc(N/C=C(\C(=O)c2ccc(Br)cc2)S(=O)(=O)c2ccccc2)cc1 | > 100 µM | > 100 µM | > 100 µM |  |  | 
O=C(O)c1ccc(N/N=C(/CS(=O)(=O)c2ccccc2)c2ccc(Cl)cc2)cc1 |  | > 100 µM | > 100 µM |  |  | 
NS(=O)(=O)c1ccc(N/C=C(\C(=O)c2ccc(Br)cc2)S(=O)(=O)c2ccccc2)cc1 |  | 3.03 µM |  | 20.4 µM | 62.7 µM | 
NS(=O)(=O)c1ccc(C(=O)N/N=C(/CS(=O)(=O)c2ccccc2)c2ccccc2)cc1 |  | 0.769 µM |  | 84.8 µM | 10.7 µM | 
NS(=O)(=O)c1ccc(C(=O)N/N=C\c2ccccc2)cc1 |  | 0.869 µM |  | 39.4 µM | 14.9 µM | 
C/C(=N/NC(=O)c1ccc(S(N)(=O)=O)cc1)c1ccc(Cl)cc1 |  | 0.319 µM |  | 62.7 µM | 3.75 µM | 
NS(=O)(=O)c1ccc(N/C=C(\C(=O)c2ccc(Cl)cc2)S(=O)(=O)c2ccccc2)cc1 |  | 3.01 µM |  | 28 µM | 15.1 µM | 
NS(=O)(=O)c1ccc(N/C=C(\C(=O)c2ccccc2)S(=O)(=O)c2ccccc2)cc1 |  | 2.76 µM |  | 17.9 µM | 3.44 µM | 
NS(=O)(=O)c1ccc(N/N=C(/CS(=O)(=O)c2ccccc2)c2ccccc2)cc1 |  | 2.49 µM |  | 46.1 µM | 3.97 µM | 
O=C(O)c1ccc(N/N=C(/CS(=O)(=O)c2ccccc2)c2ccc(Br)cc2)cc1 | > 100 µM | > 100 µM | > 100 µM |  |  | > 100 µM
NS(=O)(=O)c1ccc(C(=O)N/N=C(/CS(=O)(=O)c2ccccc2)c2ccc(Br)cc2)cc1 |  | 0.289 µM |  | 34.1 µM | 19.1 µM | 
O=C(O)c1ccc(N/C=C(\C(=O)c2ccc(Cl)cc2)S(=O)(=O)c2ccccc2)cc1 | > 100 µM | > 100 µM | > 100 µM |  |  | > 100 µM
NS(=O)(=O)c1ccc(C(=O)N/N=C(/CS(=O)(=O)c2ccccc2)c2ccc(F)cc2)cc1 |  | 1.12 µM |  | 63.7 µM | 0.62 µM | 
C/C(=N/NC(=O)c1ccc(S(N)(=O)=O)cc1)c1ccc(Br)cc1 |  | 0.962 µM |  | 37.6 µM | 2.29 µM | 
O=C(O)c1ccc(N/N=C(/CS(=O)(=O)c2ccccc2)c2ccccc2)cc1 | > 100 µM | > 100 µM |  |  |  | 
NS(=O)(=O)c1ccc(N/N=C(/CS(=O)(=O)c2ccccc2)c2ccc(Br)cc2)cc1 |  | 0.909 µM |  | 12.9 µM | 17.3 µM | 
C/C(=N/NC(=O)c1ccc(S(N)(=O)=O)cc1)c1ccc(F)cc1 |  | 1.45 µM |  | 22 µM | 31.9 µM | 
NS(=O)(=O)c1ccc(C(=O)N/N=C(/CS(=O)(=O)c2ccccc2)c2ccc(Cl)cc2)cc1 |  | 0.818 µM |  | 25.6 µM | 57 µM | 
NS(=O)(=O)c1ccc(C(=O)N/N=C\c2ccc(F)cc2)cc1 |  | 2.37 µM |  | 35.9 µM | 9.17 µM | 
NS(=O)(=O)c1ccc(C(=O)N/N=C\c2ccc(Br)cc2)cc1 |  | 2.21 µM |  | 27.7 µM | 1.37 µM | 
O=C(O)c1ccc(N/C=C(\C(=O)c2ccccc2)S(=O)(=O)c2ccccc2)cc1 | > 100 µM | > 100 µM | > 100 µM |  |  | > 100 µM
NS(=O)(=O)c1ccc(N/N=C(/CS(=O)(=O)c2ccccc2)c2ccc(Cl)cc2)cc1 |  | 2.91 µM |  | 28.6 µM | 8.01 µM | 
NS(=O)(=O)c1ccc(C(=O)N/N=C\c2ccc(Cl)cc2)cc1 |  | 2.09 µM |  | 82 µM | 36.7 µM | 
O=C(O)c1ccc(N/N=C(\C(=O)c2ccccc2)S(=O)(=O)c2ccccc2)cc1 | > 100 µM | > 100 µM | > 100 µM |  |  | > 100 µM
O=c1[nH]cc(F)c(=O)[nH]1 [FLUOROURACIL] |  |  |  | 17.2 µM | 12.5 µM | 
C/C(=N/NC(=O)c1ccc(S(N)(=O)=O)cc1)c1ccccc1 |  | 0.322 µM |  | 31.1 µM | 20.1 µM | 
NS(=O)(=O)c1ccc(N/N=C(\C(=O)c2ccccc2)S(=O)(=O)c2ccccc2)cc1 |  | 1.61 µM |  | 14.1 µM | 1.74 µM | 
